One assay deals with NLRP3 inflammasome. The experiment in a line: NLRP3 inflammasome activation in LPS-primed BMDM, IL-1β ELISA. Format: cell-based, mouse. Conditions: for IL-1β production by NLRP3 inflammasome activation: LPS primed BMDM, different doses (30-1000 nM) 15 min before ATP (5 mM) 45 min, ELISA. On the procedure:
FIG. 4A depicts an experimental design and FIG. 4B is a bar graph. Ixazomib (IXZ) potentiation of NLRP3 inflammasome activation inhibited by CDDO-2P-Im. Bone marrow derived macrophages (BMDM) were treated with Ixazomib (IXZ) and LPS (100 ng/ml) for 20 hours. Primed-BMDM were treated with CDDO-2P-Im (100 nM) for 15 min, followed by stimulation of ATP (5 mM) for 45 min. Supernatant were analyzed by ELISA for IL-1β release.
FIG. 6 is a set of bar graphs. CDDO-Im, CDDO-2P-Im (right panel), and CDDO-3P-Im (left panel) inhibit IL-1β production by NLRP3 inflammasome activation. LPS primed-BMDM were treated with different doses of CDDO-Im, CDDO-2P-Im, or CDDO-3P-Im for 15 min before ATP (5 mM) was added for 45 min. Supernatant were analyzed by ELISA for IL-1β.
To explore the potential that CDDO-2P-IM may enhance the MM response to proteasome inhibitors via inhibition of inflammasome activity, the effect of CDDO-2P-IM on activation of the NLRP3 complex (as defined by IL-1β production), in the presence or absence of IXZ in primary mouse bone marrow derived macrophages (BMDM) was evaluated. In the experiment, BMDM were primed by lipopolysaccharide (LPS) in the presence or absence of IXZ for 4 hours, followed by a brief ([…]) exposure to CDDO-2P-IM after which inflammasome activation was triggered by ATP.
(§1) The effects of the pyridyl derivatives of CDDO-IM, (specifically, CDDO-2P-Im and CDDO-3P-Im) on NLRP3 inflammasome activation were tested in mouse BMDMs. Cells were first primed with LPS for 4 hours, then pretreated with specific doses of either CDDO-Im, CDDO-2P-IM or CDDO-3P-Im (30-1000 nM) for 15 min before ATP was added for another 45 min. CDDO-Im and its pyridyl derivatives inhibited the amount of caspase-p10 (an auto-processed fragment of caspase-1) released into cell culture supernatants in a dose-dependent manner as measured by Western blot (FIG. 5). […] The effect on caspase-1 activation is specific for the NLRP3 inflammasome as the AIM2 inflammasome activation by poly(dA:dT) was not inhibited by the synthetic CDDO-Im derivatives (data not shown).
(In general: In an ELISA, binding on a coated surface is turned into a signal by an enzyme label.)

In the next assay the test system is NLRP3. The experiment in a line: Mono-sodium urate (MSU)-induced peritonitis. The class given is in vivo, Mice. Conditions: MSU crystals 1 mg/mouse i.p.; lavage four to sixteen hours later. On the procedure: FIG. 7 is a bar graph. CDDO-Im, CDDO-2P-Im, and CDDO-3P-Im inhibit mono-sodium urate (MSU)-induced peritonitis. Peritoneal cavity IL-1β levels expressed as mean and SEM (n=6).
Mice received intraperitoneal (i.p.) injections of mono-sodium urate (MSU) crystals (1 mg/mouse) in the presence or absence of CDDO-Im, CDDO-2P-Im, or CDDO-3P-Im. Due to its particulate material, MSU crystals are potent activators of the NOD-like receptor NLRP3. Four to sixteen hours later a peritoneal lavage was conducted to collect supernatant from the peritoneal cavity.

The next assay concerns Caspase 1. The experiment in a line: Caspase 1 activation in LPS-primed BMDM, immunoblotting (caspase-p10). Format: cell-based, mouse. Conditions: different doses (30-1000 nM) 15 min before ATP (5 mM) 45 min. On the procedure: FIG. 5 depicts a Western blot. CDDO-Im, CDDO-2P-Im, and CDDO-3P-Im inhibit Caspase 1 activation. LPS primed BMDM were treated with different doses of CDDO-Im, CDDO-2P-Im, or CDDO-3P-Im for 15 min before ATP (5 mM) was added for 45 min. Medium supernatant (SUP) and cell extracts (Lys) were analyzed by immunoblotting.
as §1

In another assay the test system is CCL2. The experiment in a line: CCL2 expression in LPS-stimulated human macrophages, RT-qPCR. The class given is cell-based. The following applies: 16 hours pretreatment, then 10 ng/ml LPS 24 hours. On the procedure:
FIG. 10 is a bar graph. CDDO-Me, CDDO-Im, CDDO-2P-Im, and CDDO-3P-Im inhibit expression of CCL2 in human macrophages at picomolar concentrations.
Human peripheral blood monocytes were isolated using CD14 magnetic beads and differentiated with 20 ng/ml M-CSF for with 5 days and pretreated or not with 300 nM CDDO-Me; 500 pM CDDO-Im; 500 pM CDDO-2p-Im; 500 pM CDDO-3p-Im for 16 hours, followed by stimulation with 10 ng/ml LPS for an additional 24 hours. Total RNA was extracted and analyzed by RT-qPCR (Tagman) for cytokine expression.
On the technique in general: In qPCR the cycle at which signal appears reflects the starting amount.

The next assay has as its system RPMI8226 cells. The experiment in a line: MM cell proliferation (confluence), IncuCyte imaging. The class given is cell-based, human. Conditions: 100 nM TTX01 or 7.5 nM IXZ alone, 72 hours. The protocol:
(§2) FIG. 2 is a bar graph. CDDO-2P-Im inhibits proliferation of multiple myeloma cell line in vitro. 5T33MM, RPMI8226, and ARH77 cells were seeded in 96-well plates and incubated with CDDO-2P-Im (50 nM-150 nM). Confluence (cell proliferation) was measured using IncuCyte imaging after 72 hours. *p<0.01 compared to control.
(§3) FIG. 3 is a bar graph. […] Shown here are results for 5T33MM (50 nM TTX01/7.5 nM IXZ); RPMI8226 (100 nM TTX01/7.5 nM IXZ); and ARH77 (150 nM TTX01/10 nM IXZ). Confluence (cell proliferation) was measured using IncuCyte imaging after 72 hours.
(§4) To examine tumor-intrinsic effects of CDDO-2P-IM in the 5T33MM cell line and in human MM cells, conducted a series of in vitro studies was conducted. For these experiments, 96-well plates were first coated in poly-L-ornithine before cells were seeded (in triplicate), including the murine 5T33MM and the human RPMI8226, and ARH77 cell lines (15,000 cells per well). Cells were incubated in IncuCyte™ Live-Cell Analysis System for 72 hours (images were taken every 4 hours). To define dose-dependent effect of CDDO-2P-IM, cells were exposed to concentrations ranging from 50 nM to 150 nM. To examine potential synergy of CDDO-2P-IM with IXZ, MM cells were exposed to IXZ (7 nM-10 nM) either alone or in combination with CDDO-2P-IM.

The next assay concerns ARH77 cells. Described as above. Format: cell-based, human. The following applies: 150 nM TTX01 or 10 nM IXZ alone, 72 hours. On the procedure: as §2, §3, §4
For another assay, the system named is 5T33MM cells. The assay is described as above. Format: cell-based, murine. Conditions: 50 nM TTX01 or 7.5 nM IXZ alone, 72 hours. The protocol:
as §2, §3, §4

In another assay the test system is CP70. The experiment in a line: Ovarian cancer cell growth (confluence), IncuCyte ZOOM. Format: cell-based, human. Conditions: cisplatin dose used in the combination. The text has this:
(§5) FIG. 11 is a set of line graphs. Cisplatin resistant human ovarian cancer cell lines A2780, CP70, OV81, CP10, OVCAR-5 and OVCAR-8 were exposed to CDDO-2P-Im, cisplatin, or a combination of CDDO-2P-Im and cisplatin.
(§6) CDDO-2P-Im suppresses growth of cisplatin-resistant human ovarian cancer cells in vitro. Cisplatin resistant human ovarian cancer cell lines A2780, CP70, OV81, CP10, OVCAR-5 and OVCAR-8 cell were each cultured in a complete medium consisting of RPMI1640, 20% heat-inactivated FBS, 1% penicillin/streptomycin. Cells were cultured in a water jacketed CO2 incubator at 37° C. in a humidified atmosphere consisting of 5% CO2 and 95% air. Continuous live-cell analysis (CLCA) was used as a non-invasive cell monitoring and measurement method based on time-lapse, phase-contrast microscopy and fluorescence imaging, using IncuCyte® ZOOM. Cells were seeded in 96-well plates at densities of either 1×10^4 or 3×10^4 cell/cm^2 followed by addition of a drug dilution series for either CDDO-2P-Im or Cisplatin (P4394, Sigma) dissolved in PBS and diluted in media. […] Reduction in confluence is accompanied by the detachment and death of ovarian cancer cells.

A further assay deals with A2780. The description is as above. The class given is cell-based, human. Conditions: cisplatin dose used in the combination.
Excerpt: as §5, §6

The subject of another assay is OV81. The assay is described as above. The class given is cell-based, human. Conditions: cisplatin dose used in the combination.
Excerpt: as §5, §6

The test system of a further assay is OVCAR-8. The description is as above. Conditions: cisplatin dose used in the combination. Format: cell-based, human.
Excerpt: as §5, §6

The next assay relates to CP10. The assay is described as above. The following applies: cisplatin dose used in the combination. Format: cell-based, human.
Excerpt: as §5, §6

A further assay deals with OVCAR-5. The assay is described as above. Format: cell-based, human. Conditions: cisplatin dose used in the combination.
Excerpt: as §5, §6

As for `CC1(C)CC[C@]2(C(=O)n3cnc(-c4cccnc4)c3)CC[C@]3(C)[C@H](C(=O)C=C4[C@@]5(C)C=C(C#N)C(=O)C(C)(C)[C@@H]5CC[C@]43C)[C@@H]2C1` [CDDO-3P-Im, 1-[2-Cyano-3,12-dioxooleana-1,9(11)-dien-28-oyl]-4(-pyridin-3-yl)-1H-imidazole], the “IL-1β production by NLRP3 inflammasome activation” value in the assay on NLRP3 inflammasome is recorded as “inhibit”. For the same compound, in the assay on NLRP3, the “MSU-induced peritonitis (peritoneal cavity IL-1β levels)” value is given as “inhibit”. The “Caspase 1 activation (caspase-p10 released into supernatant)” value in the assay on Caspase 1 was “inhibit”. In addition, the “expression of CCL2” value in the assay with CCL2 (500 pM) is “inhibit”.
Take `CC1(C)CC[C@]2(C(=O)n3ccnc3)CC[C@]3(C)[C@H](C(=O)C=C4[C@@]5(C)C=C(C#N)C(=O)C(C)(C)[C@@H]5CC[C@]43C)[C@@H]2C1` [CDDO-Im, 1-(2-cyano-3,12-dioxooleana-1,9(11)-dien-28-oyl) imidazole, reference compound]: the “IL-1β production by NLRP3 inflammasome activation” value in the assay with NLRP3 inflammasome was “inhibit”. Moreover, the “MSU-induced peritonitis (peritoneal cavity IL-1β levels)” value with NLRP3 was “inhibit”. Moreover, the “Caspase 1 activation (caspase-p10 released into supernatant)” value with Caspase 1 is given as “inhibit”. Besides, the “expression of CCL2” value with CCL2 (500 pM) is recorded as “inhibit”.
On to `COC(=O)[C@]12CCC(C)(C)C[C@H]1[C@H]1C(=O)C=C3[C@@]4(C)C=C(C#N)C(=O)C(C)(C)[C@@H]4CC[C@@]3(C)[C@]1(C)CC2` [CDDO-Me, reference compound], for which the “expression of CCL2” value with CCL2 (300 nM) is on record as “inhibit”.
For `CC(C)C[C@H](NC(=O)CNC(=O)c1cc(Cl)ccc1Cl)B(O)O` [IXZ, reference compound], in the assay on NLRP3 inflammasome (BMDM, IXZ and LPS (100 ng/ml), ATP (5 mM) 45 min), the “IL-1β release (NLRP3 inflammasome activation), effect of IXZ during LPS priming” value is “potentiation”. For the same compound, the “proliferation (confluence), agent added alone” value in the assay with RPMI8226 cells, in the assay on ARH77 cells and with 5T33MM cells was “only partially effective” each time.
For the compound `N.N.[Cl][Pt][Cl]` [cisplatin, cis-diamminedichloroplatinum(II), reference compound], the “ovarian cancer cell kill, cisplatin alone” value in the assay on CP70, with A2780, with OV81, in the assay with OVCAR-8, in the assay on CP10 and in the assay with OVCAR-5 was “absolutely no effect” in each case.

For the origin of these results see patent US12370202B2, “Methods and compositions for inhibiting the NLRP3 inflammasome and/or LON protease” (TRITERPENOID THERAPEUTICS, INC., priority 2019, dated 2025).
